One data set in a line: in vivo. The conditions noted are these: rat.
Data set [1] can be described thus: Electron microscopy of precipitated particles of other drugs. It is filed as physicochemical. The conditions noted are these: 3% drug in dichloromethane precipitated in 100 vol. pentane, needles. An excerpt:
In other experiments, 3% of the drug carbamazepine in dichloromethane was precipitated in 100 vol. of pentane. By electron microscopy, the particles were predominantly needles, about 1 micron in diameter by 50 microns in length. A few 1 micron spherical particles were also observed. A similar experiment using the drug itraconazole produced generally spherical particles in the range of about 0.1 to 0.5 microns diameter, by electron microscopy.

One may read the bioavailability as the share of a dose that reaches the circulation, judged against a reference dose that is usually intravenous. For `CC(=O)O[C@H]1C(=O)[C@@]2(C)[C@H]([C@H](OC(=O)c3ccccc3)[C@]3(O)C[C@H](OC(=O)[C@H](O)[C@@H](NC(=O)c4ccccc4)c4ccccc4)C(C)=C1C3(C)C)[C@]1(OC(C)=O)CO[C@@H]1C[C@@H]2O` [(e), paclitaxel], in the data set “in vivo”, the bioavailability was found to be 0.7%. In the case of `NC(=O)N1c2ccccc2C=Cc2ccccc21` [carbamazepine], in data set [1], the particle diameter entry was “about 1 micron” and the particle length is reported as roughly 50 microns.

These data come from patent US20040220081A1, “Nanoparticulate bioactive agents” (Spherics, Inc., priority 2002, published 2004).
